≈ marks a conversion by molar mass, not a printed value. Entries after “also recorded” stand apart in the source; their conditions may differ.
Legend:
mice [1] = assay: toxicity (isolated mice, intraperitoneal); assay type: in vivo
Procedure: (§1) The following text summarises a part of the results of the tests which were carried out with the products according to the invention, these products (unless otherwise stated) being administered intraperitoneally, in suspension in a gum solution (gum arabic), in a volume of 20 ml/kg in the case of mice and of 5 ml/kg in the case of rats.

mice [2] = assay: interaction with oxotremorine (temperature, trembling, peripheral cholinergic symptoms); assay type: in vivo; conditions: mice, i.p.
mice [3] = assay: four-plate test; assay type: in vivo, mice (EVIC CEBA strain); conditions: i.p.
Procedure: as §1
(§2) The test is carried out on batches of 10 sensitive mice (EVIC CEBA strain), 30 minutes after the administration of CRL 40,373.
(§3) Batches of 10 mice are subjected to the test thirty minutes after having received CRL 40,385.

mice [4] = assay: traction (motor incoordination); assay type: in vivo, mice (EVIC CEBA strain)
mice [5] = assay: electrical shock (convulsing effects); assay type: in vivo, mice (EVIC CEBA strain); conditions: i.p.
Procedure: as §1, §2, §3

central nervous system = assay: psychopharmacological study / behaviour; assay type: in vivo, mice; conditions: for sedation / sedative effect: high dose(s)
man = assay: clinical use in man; assay type: in vivo; conditions: pill 20 mg, 3 to 4 pills per day
[6] = solubility in distilled water; assay type: physicochemical; conditions: read-out: solubility limit
rats [7] = assay: interaction with apomorphine (stereotype behaviour in rats); assay type: in vivo; conditions: rats, i.p.
Procedure: as §1
Batches of six rats are each given a subcutaneous injection of apomorphine (0.5 mg/kg) 30 minutes after the administration of CRL 40,373.
Batches of 6 rats are given a subcutaneous injection of 0.5 mg/kg of apomorphine 30 minutes after the administration of CRL 40,385.

rats [8] = assay: interaction with amphetamine (stereotypies in rats); assay type: in vivo; conditions: rats, i.p.
Summary of the method: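 Test products given intraperitoneally as a gum arabic suspension (5 ml/kg in rats). Thirty minutes later, amphetamine 2 mg/kg is injected intraperitoneally; 6 animals per dose.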

mice [9] = assay: spontaneous motility (actimeter); assay type: in vivo; conditions: mice
Summary of the method: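 Compounds given i.p. as a gum arabic suspension at 20 ml/kg. Thirty minutes after dosing, mice (6 per dose, 12 controls) went into an actimeter and motility was recorded for half an hour.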

mice [10] = assay: motility reduced by habituation to a cage (residual motility); assay type: in vivo; conditions: i.p.
Summary of the method: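 Mice habituated 18 hours in actimeters received compound intraperitoneally as a gum arabic suspension (20 ml/kg) and were returned to their cages. Motility was recorded for 30 minutes starting half an hour after dosing, with 6 animals per dose and 12 controls.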

mice [11] = assay: motility reduced by hypoxia treatment (motor recovery); assay type: in vivo; conditions: mice, i.p.
mice [12] = assay: inter-group aggressiveness (number of fights); assay type: in vivo
Summary of the method: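 Mice were housed either three weeks (CRL 40,373) or 18 days (CRL 40,385, groups of 3) on each side of an opaque cage partition. Fights were counted over 15 min.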

rats [13] = assay: behaviour in rats; assay type: in vivo
Procedure: as §1

mice [14] = assay: interaction with reserpine (hypothermia, ptosis); assay type: in vivo; conditions: i.p.
mice [15] = assay: interaction with apomorphine in mice; assay type: in vivo

Structure (SMILES): O=C(CC(=O)Nc1c(Cl)cccc1Cl)NO [CRL 40,510, 2,6-Dichlorophenyl-carbamoyl-acetohydroxamic acid]
- LD-O (maximum non-lethal dose) (mice [1]; mice, i.p.): greater than 1,024 mg/kg
- oxotremorine-induced trembling (mice [2]): moderately antagonistic to the trembling movements caused by oxotremorine
- anxiolytic effect (four plate test) (mice [3]; also gastric administration): effects of the anxiolytic type
- motor incoordination / incapacity (mice [4]; i.p.): absence of motor incapacity
- anti-convulsive effect (mice [5]; also gastric administration): of the anti-convulsive type
- sedation / sedative effect (central nervous system): moderate sedative effect
- psychopharmacological profile / conclusion (central nervous system; mouse, in vivo): comes close to the benzodiazepines in respect of anxiolytic and anti-convulsive activities; also recorded: relative resistance to sedation
- clinical result (man): good results in man as an anxiolytic sedative agent
- solubility [6]: ~13 mg/mL (≈ 49.4 mM)

Structure (SMILES): CC(C(=O)NO)[S+]([O-])Cc1ccc(Cl)cc1 (stereo not shown) [CRL 40,466, 2-(p-Chlorobenzylsulphinyl)-propionohydroxamic acid]
- mortality (mice [1]; mice, i.p., 256, 512 and 1,024 mg/kg): does not cause any mortality whatsoever
- apomorphine-induced stereotypies (rats [7]): does not markedly alter the stereotypies induced in rats by apomorphine
- amphetamine-induced stereotypies (rats [8]): does not markedly alter the stereotypies induced in rats by apomorphine and amphetamine
- oxotremorine-induced trembling (mice [2]): reduces the trembling movements due to oxotremorine
- temperature (oxotremorine-induced hypothermia) (mice [2]): does not oppose hypothermia induced by oxotremorine
- temperature (oxotremorine-induced hypothermia) (mice [2]; high doses): aggravates the hypothermia
- number of incorrect moves (four-plate test) (mice [3]; mice): moderate (but significant) increase in the number of incorrect moves
- motor incapacity (mice [4]; high dose): motor incapacity
- convulsing effects of the electric shock (mice [5]; mice): antagonism to convulsions caused by electric shock
- spontaneous motility (mice [9]; high dose): reduction in spontaneous motility
- spontaneous motility (mice [9]; i.p., 8 mg/kg): appears to exhibit a stimulant effect on the motility
- spontaneous motility (mice [9]; i.p., 512 mg/kg): depresses spontaneous motility in mice
- motility reduced by habituation to the cage (mice [10]): moderate increase in the motility reduced by habituation
- motor recovery after hypoxia/anoxia by pressure reduction (mice [11]): moderate increase in the motility reduced by habituation or by the effects of hypoxia
- aggressiveness (mice [12]; low dose): increase in aggressiveness
- aggressiveness (mice [12]; mice, i.p., large/high dose): reduction of aggressiveness
- reactivity (central nervous system; mice, high dose): hypo-reactivity
- excitation (central nervous system; mice, low dose): excitation, with hyper-reactivity
- body temperature effect (product alone) (central nervous system; mouse, in vivo): hypothermia
- psychopharmacological profile / conclusion (central nervous system; mouse, in vivo): effects of the sedative type and effects of the psychostimulant type; also recorded: sedation in mice
- ptosis (product alone) (central nervous system; mouse, in vivo): ptosis
- excitation (rats [13]): excitation, with hyper-reactivity

Structure (SMILES): O=C(CNc1ccc(Cl)c(Cl)c1)NO [CRL 40,500, (3,4-Dichloroanilino)-acetohydroxamic acid]
- mortality (mice [1]; i.p., 256 mg/kg): the mice survive
- average time to death (mice [1]; i.p., 512 mg/kg): 18 h
- relative toxicity (mice [1]; mouse, in vivo, ip): more toxic than the products studied above
- symptoms / behaviour (mice [1]; mouse, in vivo, ip, 256 mg/kg): the symptoms are identical
- apomorphine-induced stereotypies (rats [7]): does not alter the stereotypies induced by apomorphine
- amphetamine-induced stereotypies (rats [8]): does not alter the stereotypies induced by apomorphine (rats and mice) and by amphetamine (rats)
- reserpine-induced hypothermia (mice [14]): aggravation of the hypothermia due to reserpine
- temperature (oxotremorine-induced hypothermia) (mice [2]): aggravation of the hypothermia due to reserpine and to oxotremorine
- peripheral effects of oxotremorine (mice [2]; 128 and 32 mg/kg): increases the peripheral effects of oxotremorine
- spontaneous motility (mice [9]; i.p., 32 and 128 mg/kg): moderately reduces the spontaneous motility of mice
- motility reduced by habituation to the cage (mice [10]; 128 mg/kg): moderate resumption of the motor activity of mice habituated to their cage
- motor recovery after hypoxia/anoxia by pressure reduction (mice [11]): does not cause a marked improvement in the motor recovery of mice
- aggressiveness (mice [12]; low dose): reduction of aggressiveness which is substantial at low doses
- inter-group aggressiveness (mice [12]; mice, i.p., all the doses studied): reduces the inter-group aggressiveness of mice
- inter-group aggressiveness (mice [12]; mice, i.p., high doses (64 and 128 mg/kg)): a reduction of the effect is observed
- inter-group aggressiveness (mice [12]; mice, i.p., lowest dose used (8 mg/kg)): present with considerable intensity
- sedation / sedative effect (central nervous system): moderate sedation at high doses
- apomorphine-induced stereotypies (mice [15]): does not alter the stereotypies induced by apomorphine

From US4151300A, “Acetohydroxamic acids” (Laboratoire L. Lafon, priority 1976, dated 1979)
